According to patent publication US20230190852A1, “COMPOSITIONS AND METHODS FOR JOINT HEALTH” (Unigen, Inc., priority 2013, published 2023):
Where “and” joins values, the source holds several entries; their conditions need not be identical. Equal entries are not always repeated.

What was measured:
Assay type in all cases: in vivo
CD-1 mice [1] = test: Nociceptive behavior model elicited by intraplantar injection of formalin; conditions: 200 mg/kg oral
Description: Mice (n=6 per group) were habituated under inverted Plexiglas observation chamber for 30 minutes to allow them to acclimatize to their surroundings. […] Mice were immediately transferred to their individual observational chamber. […] Mirrors positioned behind the chambers enabled observation of the right hind paw when it was obscured from direct view. […] These behavioral reactions observed for the first five minutes are due to direct action of the irritant on sensory nerve endings where is believed to be as a result of inflammation in the later phase. […] Mice were treated with curcumin (50, 100, 150 or 200 mg/kg) or ibuprofen (200 mg/kg) orally half an hour before intraplantar formalin injection.

CD-1 mice [2] = test: Visceral pain perception model (Writhing's test, acetic acid)
Description: Mice (n=6 per group) were habituated under an inverted Plexiglas observation chamber for 30 minutes to allow them to acclimatize to their surroundings. Animals were orally administered treatment articles at different doses, […], or vehicle control (propylene glycol) 30 minutes before intraperitoneal administration of freshly made acetic acid solution (0.7% in 0.9% NaCl) at 10 ml/kg using a 26 gauge needle. The experiment was carried out at room temperature. After the challenge, each animal was placed back into its own individual section of the observation chamber and the number of constrictions of the abdominal muscle together with stretching was counted cumulatively over a period of 30 minutes (Collier et al., Br. J. Pharmacol. Chemother. 32:295, 1968).

Wistar rats = test: Adjuvant-induced arthritis (AIA) rat model (paw edema, allodynia, ankle width); parameters: Paw edema, Mean ± SD: unit not given beside the values; Allodynia, Mean ± SD / Ankle Width, Mean ± SD: unit not given here; conditions: for reduction in ankle diameter vs. vehicle control / reduction in pain sensitivity (allodynia) / reduction in paw edema vs. vehicle control / Allodynia, Mean ± SD / Paw edema, Mean ± SD: 100 mg/kg oral daily; for Ankle Width, Mean ± SD: AIA rats, oral 100 mg/kg; for Allodynia, Mean ± SD / Paw edema, Mean ± SD: AIA model, Wistar rats
Description: This adjuvant-induced rat arthritis model was used to evaluate the anti-pain and anti-inflammatory activity of a Curcuma:Morus (C:M) composition. Purpose bred female Wistar rats weighing 150-175 g (Charles River Laboratories, Inc., Wilmington, Mass.) were acclimated upon arrival for a week before being assigned randomly to their respective group. The rats were provided with fresh water and rodent chow diet ad libitum while being housed in a temperature controlled room (22.2° C.) on a 12 hour light-dark cycle. Treatment was started a day before antigen inoculation, wherein animals (n=9) were orally gavaged with a positive control ibuprofen, a 1C:1M test article, or a vehicle only control (propylene glycol). On the next day, arthritis was induced by sensitizing rats with an injection of complete Freund's adjuvant containing 5 mg/ml (w/v) suspension of heat killed Mycobacterium tuberculosis in liquid paraffin into the subplantar region of right hind paw of sedated rats (Currey, Ann. Rheum. Dis. 29:314, 1970; Whitehouse et al., Can. Med. Assoc. J. 129:249, 1983) an hour after a second treatment dose.
(§1) Treatment with the controls or test articles was started a day before intraplantar injection of complete adjuvant into the right hind paw. The anti-inflammatory effect of a C:M composition was reflected in the measured change in paw edema. Rats (n=9) were treated orally with 1C:1M composition (200 mg/kg, 100 mg/kg or 50 mg/kg), ibuprofen (100 mg/kg) or vehicle for 14 days. Data are expressed as mean±SD and p-values were calculated against vehicle. Paw edema was measured with the use of a plethysmometer (IITC, Woodland Hills, Calif.; Model 520) on day 1 (before antigen), day 3, 5, 7, 9 and 13 after antigen injection.
Treatment with the controls or test articles was started a day before intraplantar injection of complete adjuvant into the right hind paw. The anti-pain effect of a C:M composition was reflected by allodynia (induced pain). Rats (n=9) were treated orally with 1C:1M composition (200 mg/kg, 100 mg/kg or 50 mg/kg), ibuprofen (100 mg/kg) or vehicle for 14 days. Data are expressed as mean±SD and p-values were calculated against vehicle. Allodynia was evaluated by responsiveness to pressure applied perpendicular to the central plantar surface of the right hind paw using the Randall—Selitto test (Randall and Selitto, Arch. Intl Pharmacodyn Therap. 133:233, 1957). A positive response to the applied mechanical pressure, noted by sharp withdrawal of the paw, was recorded automatically by an electronic Von Frey Anesthesiometer (2390 series Electrovonfrey, IITC, Woodland Hills, Calif.) (Vivancos et al., 2004).
as §1, with “ankle diameter.” for “paw edema.”, “vehicle Ankle diameter” for “vehicle. Paw edema”, “using” for “with the use of”, “Pocket Thickness Gage (7309, Mitutoyo corp. Japan)” for “plethysmometer (IITC, Woodland Hills, Calif.; Model 520)”

[3] = 200 mg/kg oral, vs vehicle, CD-1 mice

CC(C)Cc1ccc(C(C)C(=O)O)cc1 (centres unmarked) [Ibuprofen]
Pain Sensitivity 20-40 Minutes after Formalin Injection % ↓ vs. Vehicle (CD-1 mice [1]): 63.5%
Max % inhibition of visceral pain sensitivity (CD-1 mice [2]; 100 mg/kg oral): 67.6%
Visceral Pain Sensitivity % ↓ vs. Vehicle (CD-1 mice [2]; 100 mg/kg oral): 56.1%
% reduction of pain behavior (CD-1 mice [2]; 200 mg/kg oral): 67.4% and 46.0%
number of abdominal constrictions / behavioral responses in 30 minutes, Mean ± SD (CD-1 mice [2]; 200 mg/kg oral): 25.3±14.3 and 41.8±12.6
Visceral pain sensitivity, behavioral responses, Mean ± SD (CD-1 mice [2]; 200 mg/kg oral 30 min before acetic acid i.p., observed 30 minutes, CD-1 mice): 34.5 ± 12.7 and 25.3 ± 14.3 and 41.8 ± 12.6
Visceral pain sensitivity, % Inhibition (CD-1 mice [2]; [3]): 67.4% and 46.0%
Visceral pain sensitivity, % inhibition vs vehicle (CD-1 mice [2]; [3]): 64.1%
reduction in ankle diameter vs. vehicle control (Wistar rats; day 3): 37.2%
reduction in pain sensitivity (allodynia) (Wistar rats; day 3): 31.3%
reduction in paw edema vs. vehicle control (Wistar rats; day 3): 28.8%
reduction in ankle diameter vs. vehicle control (Wistar rats; day 5): 34.8%
reduction in pain sensitivity (allodynia) (Wistar rats; day 5): 39.5%
reduction in paw edema vs. vehicle control (Wistar rats; day 5): 21.1%
reduction in ankle diameter vs. vehicle control (Wistar rats; day 7): 36.8%
reduction in pain sensitivity (allodynia) (Wistar rats; day 7): 48.8%
reduction in paw edema vs. vehicle control (Wistar rats; day 7): 19.4%
reduction in ankle diameter vs. vehicle control (Wistar rats; day 9): 33.5%
reduction in pain sensitivity (allodynia) (Wistar rats; day 9): 52.5%
reduction in paw edema vs. vehicle control (Wistar rats; day 9): 24.3%
reduction in ankle diameter vs. vehicle control (Wistar rats; day 13): 44.2%
reduction in pain sensitivity (allodynia) (Wistar rats; day 13): 52.5%
reduction in paw edema vs. vehicle control (Wistar rats; day 13): 32.7%
Ankle Width, Mean ± SD (Wistar rats; Day 3): 1.1 ± 0.1
Ankle Width, Mean ± SD (Wistar rats; Day 5): 1.0 ± 0.1
Ankle Width, Mean ± SD (Wistar rats; Day 7): 1.2 ± 0.1
Ankle Width, Mean ± SD (Wistar rats; Day 9): 1.0 ± 0.2
Ankle Width, Mean ± SD (Wistar rats; Day 13): 0.8 ± 0.1
Allodynia, Mean ± SD (Wistar rats; Day 3): 67.4 ± 5.6
Paw edema, Mean ± SD (Wistar rats; Day 3): 3.5 ± 0.7
Allodynia, Mean ± SD (Wistar rats; Day 5): 54.8 ± 2.6
Paw edema, Mean ± SD (Wistar rats; Day 5): 3.1 ± 0.8
Allodynia, Mean ± SD (Wistar rats; Day 7): 43.0 ± 4.6
Paw edema, Mean ± SD (Wistar rats; Day 7): 3.1 ± 0.7
Allodynia, Mean ± SD (Wistar rats; Day 9): 38.8 ± 2.3
Paw edema, Mean ± SD (Wistar rats; Day 9): 2.7 ± 0.6
Allodynia, Mean ± SD (Wistar rats; Day 13): 32.9 ± 2.6
Paw edema, Mean ± SD (Wistar rats; Day 13): 2.1 ± 0.58
